Earlier results in PMC5742115, “Pharmacophore Modeling and in Silico/in Vitro Screening for Human Cytochrome P450 11B1 and Cytochrome P450 11B2 Inhibitors” (Frontiers in Chemistry, 2017).
Where two headings read alike, the source gives them in different places.

Assays:
CYP11B2 = settings: cited from earlier work
CYP11B1 = settings: cited from earlier work
[1] = reported activity, supplementary Table 1, ref Yin et al., 2013, read-out: CYP11B2 IC50
[2] = reported activity, supplementary Table 1, ref Yin et al., 2013, read-out: CYP11B1 IC50
[3] = reported activity, supplementary Table 1, ref Blass, 2013a, read-out: CYP11B2 IC50
[4] = reported activity, supplementary Table 1, ref Blass, 2013a, read-out: CYP11B1 IC50
[5] = reported activity, supplementary Table 1, ref Gobbi et al., 2013, read-out: CYP11B2 IC50
[6] = reported activity, supplementary Table 1, ref Gobbi et al., 2013, read-out: CYP11B1 IC50
[7] = reported activity, supplementary Table 1, ref Emmerich et al., 2013, read-out: CYP11B2 IC50
[8] = reported activity, supplementary Table 1, ref Emmerich et al., 2013, read-out: CYP11B1 IC50
[9] = reported activity, supplementary Table 1, ref Pinto-Bazurco Mendieta et al., 2013, read-out: CYP11B2 IC50
[10] = reported activity, supplementary Table 1, ref Pinto-Bazurco Mendieta et al., 2013, read-out: CYP11B1 IC50
[11] = reported activity, supplementary Table 1, ref Meredith et al., 2013, read-out: CYP11B2 IC50
[12] = reported activity, supplementary Table 1, ref Meredith et al., 2013, read-out: CYP11B1 IC50
[13] = Figure 2, ref Yin et al., 2012, Emmerich et al., 2013, Gobbi et al., 2016, read-out: hCYP11B2 IC50
[14] = Figure 2, ref Yin et al., 2012, Emmerich et al., 2013, Gobbi et al., 2016, read-out: hCYP11B1 IC50

O=C1CCc2cc(Cc3cccnc3)cc3c2N1CC3 [CHEMBL2312965]
IC50 (CYP11B2; [1]): 74 nM | IC50 (CYP11B1; [2]): 16 nM

C=C(c1cccnc1)c1cc2c3c(c1)CCN3C(=O)CC2 [CHEMBL2312966]
IC50 (CYP11B2; [1]): 468 nM | IC50 (CYP11B1; [2]): 41 nM

CC(c1cccnc1)c1cc2c3c(c1)CCN3C(=O)CC2 (centres unmarked) [CHEMBL2312967]
IC50 (CYP11B2; [1]): 37 nM | IC50 (CYP11B1; [2]): 4 nM

O=C1CCc2cc(C(c3cccnc3)c3cccc(Cl)c3)cc3c2N1CC3 (centres unmarked) [CHEMBL2312971]
IC50 (CYP11B2; [1]): > 5000 nM | IC50 (CYP11B1; [2]): 36 nM

O=C1CCc2cc(C(c3ccc(F)cc3)c3cccnc3)cc3c2N1CC3 (centres unmarked) [CHEMBL2312972]
IC50 (CYP11B2; [1]): 587 nM | IC50 (CYP11B1; [2]): 78 nM

Cc1nnc2n1-c1c(Cl)cc(-c3cnccc3C3CC3)cc1CC2 [CHEMBL2331703]
IC50 (CYP11B2; [3]): 48 nM | IC50 (CYP11B1; [4]): 6930 nM

COC(C)(C)c1cncc(-c2ccc3c(c2)CCc2nnc(C)n2-3)c1 [CHEMBL2331704]
IC50 (CYP11B2; [3]): 5 nM | IC50 (CYP11B1; [4]): 108 nM

Cc1nnc2n1-c1ccc(-c3cncc4ccccc34)cc1CC2 [CHEMBL2331706]
IC50 (CYP11B2; [3]): 5 nM | IC50 (CYP11B1; [4]): 407 nM

Fc1ccc(Cn2ccnc2)cn1 [CHEMBL2331707]
IC50 (CYP11B2; reported activity, supplementary Table 1, ref Blass, 2013b, read-out: CYP11B2 IC50): 1740 nM | IC50 (CYP11B1; reported activity, supplementary Table 1, ref Blass, 2013b, read-out: CYP11B1 IC50): 72 nM

O=c1c2ccccc2oc2c(Cl)ccc(Cn3ccnc3)c12 [CHEMBL2333326]
IC50 (CYP11B2; [5]): 3 nM | IC50 (CYP11B1; [6]): 0.5 nM

O=c1c2ccccc2oc2c(I)ccc(Cn3ccnc3)c12 [CHEMBL2333327]
IC50 (CYP11B2; [5]): 23.5 nM | IC50 (CYP11B1; [6]): 19.2 nM

COc1ccc(Cn2ccnc2)c2c(=O)c3ccccc3oc12 [CHEMBL2333329]
IC50 (CYP11B2; [5]): 41.1 nM | IC50 (CYP11B1; [6]): 80.1 nM

CCOc1ccc(Cn2ccnc2)c2c(=O)c3ccccc3oc12 [CHEMBL2333330]
IC50 (CYP11B2; [5]): 14.8 nM | IC50 (CYP11B1; [6]): 25.4 nM

CC(C)Oc1ccc(Cn2ccnc2)c2c(=O)c3ccccc3oc12 [CHEMBL2333331]
IC50 (CYP11B2; [5]): 19.1 nM | IC50 (CYP11B1; [6]): 92.5 nM

CC(C)CCOc1ccc(Cn2ccnc2)c2c(=O)c3ccccc3oc12 [CHEMBL2333332]
IC50 (CYP11B2; [5]): 25.2 nM | IC50 (CYP11B1; [6]): 24.4 nM

CCC(C)Oc1ccc(Cn2ccnc2)c2c(=O)c3ccccc3oc12 (centres unmarked) [CHEMBL2333333]
IC50 (CYP11B2; [5]): 15.3 nM | IC50 (CYP11B1; [6]): 13.1 nM

O=c1c2ccccc2oc2c(OCC3CC3)ccc(Cn3ccnc3)c12 [CHEMBL2333334]
IC50 (CYP11B2; [5]): 24.1 nM | IC50 (CYP11B1; [6]): 5.5 nM

O=c1c2ccccc2oc2c(OC3CCCC3)ccc(Cn3ccnc3)c12 [CHEMBL2333335]
IC50 (CYP11B2; [5]): 99.7 nM | IC50 (CYP11B1; [6]): 268 nM

Cc1cncc(Cc2ccc(-c3ccccc3)nc2)c1 [CHEMBL2417553]
IC50 (CYP11B2; [7]): 33 nM | IC50 (CYP11B1; [8]): 2 nM

FC(F)(F)c1cncc(Cc2ccc(-c3ccccc3)nc2)c1 [CHEMBL2417613]
IC50 (CYP11B2; [7]): 115 nM | IC50 (CYP11B1; [8]): 38 nM

COc1cncc(Cc2ccc(-c3ccccc3)nc2)c1 [CHEMBL2417614]
IC50 (CYP11B2; [7]): 25 nM | IC50 (CYP11B1; [8]): 5 nM

Oc1cncc(Cc2ccc(-c3ccccc3)nc2)c1 [CHEMBL2417615]
IC50 (CYP11B2; [7]): 836 nM | IC50 (CYP11B1; [8]): 51 nM

c1ccc(-c2cncc(Cc3ccc(-c4ccccc4)nc3)c2)cc1 [CHEMBL2417616]
IC50 (CYP11B2; [7]): 0.5 nM | IC50 (CYP11B1; [8]): 1.3 nM

CC(c1ccc(-c2ccccc2)nc1)n1ccnc1 (centres unmarked) [CHEMBL2417619]
IC50 (CYP11B2; [7]): 200 nM | IC50 (CYP11B1; [8]): 33 nM

CCC(c1ccc(-c2ccccc2)nc1)n1ccnc1 (centres unmarked) [CHEMBL2417620]
IC50 (CYP11B2; [7]): 92 nM | IC50 (CYP11B1; [8]): 28 nM

c1ccc(-c2ccc(C(C3CC3)n3ccnc3)cn2)cc1 (centres unmarked) [CHEMBL2417621]
IC50 (CYP11B2; [7]): 25 nM | IC50 (CYP11B1; [8]): 21 nM

c1ccc(-c2ccc(C(c3ccco3)n3ccnc3)cn2)cc1 (centres unmarked) [CHEMBL2417623]
IC50 (CYP11B2; [7]): 74 nM | IC50 (CYP11B1; [8]): 69 nM

CC(c1ccc(-c2ccsc2)nc1)n1ccnc1 (centres unmarked) [CHEMBL2417625]
IC50 (CYP11B2; [7]): 151 nM | IC50 (CYP11B1; [8]): 21 nM

c1cn(C(c2ccc(-c3ccsc3)nc2)C2CC2)cn1 (centres unmarked) [CHEMBL2417626]
IC50 (CYP11B2; [7]): 31 nM | IC50 (CYP11B1; [8]): 11 nM

CC(c1ccc(-c2cccc3ccccc23)nc1)n1ccnc1 (centres unmarked) [CHEMBL2417627]
IC50 (CYP11B2; [7]): 273 nM | IC50 (CYP11B1; [8]): 60 nM

c1ccc(-c2ncc(Cn3ccnc3)c3ccccc23)cc1 [CHEMBL2417632]
IC50 (CYP11B2; [7]): 302 nM | IC50 (CYP11B1; [8]): 87 nM

c1ccc(-c2ccc(Cc3cccnc3)cn2)cc1 [CHEMBL2417633]
IC50 (CYP11B2; [7]): 322 nM | IC50 (CYP11B1; [8]): 32 nM

c1ccc(-c2ccc(Cc3ccncc3)cn2)cc1 [CHEMBL2417634]
IC50 (CYP11B2; [7]): 621 nM | IC50 (CYP11B1; [8]): 98 nM

c1ccc(-c2ccc(Cc3cncc4ccccc34)cn2)cc1 [CHEMBL2417635]
IC50 (CYP11B2; [7]): 23 nM | IC50 (CYP11B1; [8]): 6 nM

Cc1ccncc1Cc1ccc(-c2ccccc2)nc1 [CHEMBL2417637]
IC50 (CYP11B2; [7]): 19 nM | IC50 (CYP11B1; [8]): 8 nM

Oc1ccc2ccc(-c3cccnc3)c(Cl)c2c1 [CHEMBL2420674]
IC50 (CYP11B2; [9]): 26 nM | IC50 (CYP11B1; [10]): 235 nM

COc1ccc2ccc(-c3cccnc3)c(F)c2c1 [CHEMBL2420675]
IC50 (CYP11B2; [9]): 17 nM | IC50 (CYP11B1; [10]): 1610 nM

Oc1ccc2ccc(-c3cccnc3)c(F)c2c1 [CHEMBL2420676]
IC50 (CYP11B2; [9]): 30 nM | IC50 (CYP11B1; [10]): 1160 nM

COc1ccc2ccc(-c3cccnc3)c(Cl)c2c1F [CHEMBL2420677]
IC50 (CYP11B2; [9]): 28 nM | IC50 (CYP11B1; [10]): 2940 nM

Oc1ccc2ccc(-c3cccnc3)c(Cl)c2c1F [CHEMBL2420678]
IC50 (CYP11B2; [9]): 25 nM | IC50 (CYP11B1; [10]): 224 nM

COc1ccc2ccc(-c3cncc(F)c3)c(Cl)c2c1 [CHEMBL2420679]
IC50 (CYP11B2; [9]): 38 nM | IC50 (CYP11B1; [10]): 1420 nM

Oc1ccc2ccc(-c3cncc(F)c3)c(Cl)c2c1 [CHEMBL2420680]
IC50 (CYP11B2; [9]): 33 nM | IC50 (CYP11B1; [10]): 450 nM

COc1cncc(-c2ccc3ccc(OC)cc3c2Cl)c1 [CHEMBL2420681]
IC50 (CYP11B2; [9]): 24 nM | IC50 (CYP11B1; [10]): 447 nM

COc1cncc(-c2ccc3ccc(O)cc3c2Cl)c1 [CHEMBL2420682]
IC50 (CYP11B2; [9]): 15 nM | IC50 (CYP11B1; [10]): 245 nM

COc1ccc2ccc(-c3cncc(O)c3)c(Cl)c2c1 [CHEMBL2420683]
IC50 (CYP11B2; [9]): 13 nM | IC50 (CYP11B1; [10]): 7100 nM

Oc1cncc(-c2ccc3ccc(O)cc3c2Cl)c1 [CHEMBL2420684]
IC50 (CYP11B2; [9]): 27 nM | IC50 (CYP11B1; [10]): 2840 nM

COc1ccc2ccc(-c3cncnc3)c(Cl)c2c1 [CHEMBL2420685]
IC50 (CYP11B2; [9]): 72 nM | IC50 (CYP11B1; [10]): 12300 nM

Oc1ccc2ccc(-c3cncnc3)c(Cl)c2c1 [CHEMBL2420686]
IC50 (CYP11B2; [9]): 22 nM | IC50 (CYP11B1; [10]): 2430 nM

COc1ccc2ccc(-c3cncc4ccccc34)c(Cl)c2c1 [CHEMBL2420687]
IC50 (CYP11B2; [9]): 54 nM | IC50 (CYP11B1; [10]): 362 nM

Oc1ccc2ccc(-c3cncc4ccccc34)c(Cl)c2c1 [CHEMBL2420688]
IC50 (CYP11B2; [9]): 66 nM | IC50 (CYP11B1; [10]): 238 nM

N#Cc1ccc([C@H]2CCCCc3cncn32)c(F)c1 [CHEMBL3099683]
IC50 (CYP11B2; [11]): 0.3 nM | IC50 (CYP11B1; [12]): 1 nM

N#Cc1ccc([C@@]2(C(=O)OCc3ccc(F)cc3)CCc3cncn32)c(Cl)c1 [CHEMBL3099689]
IC50 (CYP11B2; [11]): 3.8 nM | IC50 (CYP11B1; [12]): 0.1 nM

Cc1cc(C#N)ccc1[C@H]1CCc2cncn21 [CHEMBL3099696]
IC50 (CYP11B2; [11]): 1.5 nM | IC50 (CYP11B1; [12]): 0.9 nM

N#Cc1ccc([C@H]2CCCCc3cncn32)c(-c2ccc(F)cc2)c1 [CHEMBL3099704]
IC50 (CYP11B2; [11]): 0.3 nM | IC50 (CYP11B1; [12]): 0.4 nM

Cc1cncc(Cc2ccc(-c3ccccc3)nc2)c1 [Compound 1]
IC50 (CYP11B2; [13]): 33 nM | IC50 (CYP11B1; [14]): 2 nM

O=C1CCc2cc(C(C3CC3)n3ccnc3)cc3c2N1CC3 (centres unmarked) [Compound 2]
IC50 (CYP11B2; [13]): 24 nM | IC50 (CYP11B1; [14]): 2.2 nM

O=c1c(Cn2ccnc2)c(-c2ccccc2)oc2cc(F)ccc12 [Compound 3]
IC50 (CYP11B2; [13]): 94.9 nM | IC50 (CYP11B1; [14]): 9.7 nM
